Reference: patent US20240024488A1, “COMPOUNDS AND USES THEREOF” (Foghorn Therapeutics Inc., priority 2020, published 2024)

Columns and labels:
[1] = target: T1, HiBit-BRM fusion protein (Homo sapiens, UniProt P51531); assay: HiBiT-BRM cell-based degradation assay (Nano-Glo HiBiT Lytic Detection, 24 h); details: HeLa cell line expressing HiBiT-BRM
T1 construct: expressed in transfected cells
How it was run: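 HeLa cells stably expressing HiBiT-BRM were dosed with compounds (10-point 3-fold dilutions, 30 μM final top dose, duplicate) for 24 h. HiBiT signal was read by lytic LgBiT complementation luminescence. Percent degradation was normalised to DMSO (high control) and 2 μM of a reference BRM/BRG1 degrader (low control).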

[2] = target: T2, HiBit-BRG1 fusion protein (Homo sapiens, UniProt P51532); assay: HiBiT-BRG1 cell-based degradation assay (Nano-Glo HiBiT Lytic Detection, 24 h); details: HeLa cell line expressing HiBit-BRG1 and LgBit, read-out: BRG1 HiBit Degradation Maximum (%)
T2 construct: expressed in transfected cells
T2 sequence (P51532 whole entry, the tested form may be a part): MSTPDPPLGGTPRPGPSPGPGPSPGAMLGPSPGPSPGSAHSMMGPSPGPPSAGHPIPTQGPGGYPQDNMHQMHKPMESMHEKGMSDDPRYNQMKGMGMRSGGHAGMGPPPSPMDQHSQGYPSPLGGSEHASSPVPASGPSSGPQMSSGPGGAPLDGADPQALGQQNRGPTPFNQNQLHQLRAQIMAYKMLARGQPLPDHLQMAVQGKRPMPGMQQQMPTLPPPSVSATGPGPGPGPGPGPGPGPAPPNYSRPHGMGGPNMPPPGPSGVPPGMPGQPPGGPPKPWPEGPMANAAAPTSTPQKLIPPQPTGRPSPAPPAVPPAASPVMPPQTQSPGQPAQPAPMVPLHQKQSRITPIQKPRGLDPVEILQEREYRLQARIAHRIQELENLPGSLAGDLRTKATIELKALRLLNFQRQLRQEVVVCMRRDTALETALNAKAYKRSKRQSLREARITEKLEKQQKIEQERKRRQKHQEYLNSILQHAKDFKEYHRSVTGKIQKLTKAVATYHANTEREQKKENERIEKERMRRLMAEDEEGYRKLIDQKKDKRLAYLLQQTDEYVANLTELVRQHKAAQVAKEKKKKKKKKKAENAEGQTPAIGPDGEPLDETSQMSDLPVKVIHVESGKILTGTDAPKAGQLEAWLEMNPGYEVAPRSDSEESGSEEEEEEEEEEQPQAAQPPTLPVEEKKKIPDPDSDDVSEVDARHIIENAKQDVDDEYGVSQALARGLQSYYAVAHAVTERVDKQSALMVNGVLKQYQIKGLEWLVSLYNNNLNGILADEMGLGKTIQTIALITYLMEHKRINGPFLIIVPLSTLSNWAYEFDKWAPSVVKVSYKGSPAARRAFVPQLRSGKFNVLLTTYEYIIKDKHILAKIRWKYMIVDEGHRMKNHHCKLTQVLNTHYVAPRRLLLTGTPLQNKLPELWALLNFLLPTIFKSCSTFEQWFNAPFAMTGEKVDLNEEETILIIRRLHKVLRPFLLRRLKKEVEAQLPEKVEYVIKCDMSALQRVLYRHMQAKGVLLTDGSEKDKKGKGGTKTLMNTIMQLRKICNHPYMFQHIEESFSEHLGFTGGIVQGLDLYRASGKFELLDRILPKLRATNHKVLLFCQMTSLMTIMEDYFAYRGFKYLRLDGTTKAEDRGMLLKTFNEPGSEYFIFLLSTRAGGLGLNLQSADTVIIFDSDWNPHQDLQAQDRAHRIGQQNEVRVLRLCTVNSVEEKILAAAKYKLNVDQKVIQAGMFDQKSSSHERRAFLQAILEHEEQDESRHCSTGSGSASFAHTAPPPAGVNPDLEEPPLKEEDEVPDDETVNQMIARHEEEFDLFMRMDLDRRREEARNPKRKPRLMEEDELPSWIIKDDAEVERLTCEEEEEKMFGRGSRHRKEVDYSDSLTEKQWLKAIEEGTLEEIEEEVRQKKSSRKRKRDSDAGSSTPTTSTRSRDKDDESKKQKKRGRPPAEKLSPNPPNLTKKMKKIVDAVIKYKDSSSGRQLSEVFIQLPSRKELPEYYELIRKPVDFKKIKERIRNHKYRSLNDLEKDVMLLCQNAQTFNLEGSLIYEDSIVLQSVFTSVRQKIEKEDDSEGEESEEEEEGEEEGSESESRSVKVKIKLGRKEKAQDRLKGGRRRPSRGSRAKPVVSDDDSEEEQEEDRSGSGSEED
How it was run: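 HeLa cells stably expressing HiBiT-BRG1 plus LgBit, 5000/well, treated 24 h, then lysed with Nano-Glo HiBiT lytic reagent and luminescence read. % degradation normalised between DMSO (high control) and 2 μM reference BRM/BRG1 degrader (low control).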

T1 sequence (P51531 whole entry, the tested form may be a part): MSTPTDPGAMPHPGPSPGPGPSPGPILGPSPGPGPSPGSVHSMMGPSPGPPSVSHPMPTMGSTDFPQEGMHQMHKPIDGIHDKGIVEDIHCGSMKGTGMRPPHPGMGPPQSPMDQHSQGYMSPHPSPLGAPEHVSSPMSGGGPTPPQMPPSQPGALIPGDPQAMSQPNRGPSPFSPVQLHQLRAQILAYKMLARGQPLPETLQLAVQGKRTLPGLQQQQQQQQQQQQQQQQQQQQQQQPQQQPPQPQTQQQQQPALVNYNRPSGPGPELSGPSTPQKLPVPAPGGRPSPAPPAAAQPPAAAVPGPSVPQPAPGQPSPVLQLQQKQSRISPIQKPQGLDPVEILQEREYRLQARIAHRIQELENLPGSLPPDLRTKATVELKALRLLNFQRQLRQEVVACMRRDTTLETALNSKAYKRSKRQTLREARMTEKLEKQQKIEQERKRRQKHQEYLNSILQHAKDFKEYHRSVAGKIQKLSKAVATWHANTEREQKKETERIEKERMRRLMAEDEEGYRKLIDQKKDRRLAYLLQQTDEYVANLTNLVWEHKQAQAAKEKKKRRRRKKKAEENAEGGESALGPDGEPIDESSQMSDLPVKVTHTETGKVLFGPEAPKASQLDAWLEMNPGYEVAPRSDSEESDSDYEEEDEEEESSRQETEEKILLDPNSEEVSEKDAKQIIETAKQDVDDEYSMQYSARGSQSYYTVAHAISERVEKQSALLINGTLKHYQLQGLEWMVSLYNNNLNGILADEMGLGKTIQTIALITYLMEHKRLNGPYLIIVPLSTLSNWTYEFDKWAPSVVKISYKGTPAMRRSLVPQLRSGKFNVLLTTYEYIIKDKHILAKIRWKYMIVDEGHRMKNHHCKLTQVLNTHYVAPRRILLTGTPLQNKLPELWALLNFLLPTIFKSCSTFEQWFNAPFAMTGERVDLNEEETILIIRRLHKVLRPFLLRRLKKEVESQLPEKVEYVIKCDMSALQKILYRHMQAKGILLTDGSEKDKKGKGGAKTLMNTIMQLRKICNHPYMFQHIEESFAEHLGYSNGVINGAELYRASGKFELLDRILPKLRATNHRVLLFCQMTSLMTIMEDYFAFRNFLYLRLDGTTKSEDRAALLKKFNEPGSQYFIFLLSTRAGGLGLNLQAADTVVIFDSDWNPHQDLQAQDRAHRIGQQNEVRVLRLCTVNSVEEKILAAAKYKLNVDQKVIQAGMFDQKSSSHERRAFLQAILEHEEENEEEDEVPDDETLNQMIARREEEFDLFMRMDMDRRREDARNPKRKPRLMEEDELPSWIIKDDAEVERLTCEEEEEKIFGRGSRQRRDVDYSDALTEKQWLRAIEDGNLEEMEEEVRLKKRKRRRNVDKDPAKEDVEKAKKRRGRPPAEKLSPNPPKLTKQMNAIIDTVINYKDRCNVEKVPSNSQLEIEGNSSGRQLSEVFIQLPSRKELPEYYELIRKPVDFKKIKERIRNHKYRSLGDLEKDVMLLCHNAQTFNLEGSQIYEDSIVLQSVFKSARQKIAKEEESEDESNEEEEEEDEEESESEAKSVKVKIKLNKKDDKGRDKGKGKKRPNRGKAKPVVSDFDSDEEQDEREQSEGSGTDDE

Dmax [2] [%]	Compound	BRM HiBit Degradation Maximum (%) [1]
< 50	Cc1ncsc1-c1ccc(CNC(=O)[C@@H]2C[C@@H](O)CN2C(=O)[C@@H](NC(=O)CCCCC(=O)N2CC(c3cc4cc(-c5ccccc5O)nnc4[nH]3)C2)C(C)(C)C)cc1 [Compound 18, (2S,4R)-4-hydroxy-1-((S)-2-(6-(3-(3-(2-hydroxyphenyl)-7H-pyrrolo[2,3-c]pyridazin-6-yl)azetidin-1-yl)-6-oxohexanamido)-3,3-dimethylbutanoyl)-N-(4-(4-methylthiazol-5-yl)benzyl)pyrrolidine-2-carboxamide]	C (“C” indicates maximum degradation < 50%)
< 50	Cc1ncsc1-c1ccc(CNC(=O)[C@@H]2C[C@@H](O)CN2C(=O)[C@@H](NC(=O)CCCCCCCCCCCCCCCCC(=O)N2CC(c3cc4cc(-c5ccccc5O)nnc4[nH]3)C2)C(C)(C)C)cc1 [Compound 19, (2S,4R)-4-hydroxy-1-((S)-2-(18-(3-(3-(2-hydroxyphenyl)-7H-pyrrolo[2,3-c]pyridazin-6-yl)azetidin-1-yl)-18-oxooctadecanamido)-3,3-dimethylbutanoyl)-N-(4-(4-methylthiazol-5-yl)benzyl)pyrrolidine-2-carboxamide]	C (“C” indicates maximum degradation < 50%)
< 50	Cc1ncsc1-c1ccc(CNC(=O)[C@@H]2C[C@@H](O)CN2C(=O)[C@@H](NC(=O)CCCCCCCCCCCCCC(=O)N2CC(c3cc4cc(-c5ccccc5O)nnc4[nH]3)C2)C(C)(C)C)cc1 [Compound 20, (2S,4R)-4-hydroxy-1-((S)-2-(15-(3-(3-(2-hydroxyphenyl)-7H-pyrrolo[2,3-c]pyridazin-6-yl)azetidin-1-yl)-15-oxopentadecanamido)-3,3-dimethylbutanoyl)-N-(4-(4-methylthiazol-5-yl)benzyl)pyrrolidine-2-carboxamide]	C (“C” indicates maximum degradation < 50%)
< 50	Cc1ncsc1-c1ccc(CNC(=O)[C@@H]2C[C@@H](O)CN2C(=O)[C@@H](NC(=O)CCCCCCCCCCCCCCC(=O)N2CC(c3cc4cc(-c5ccccc5O)nnc4[nH]3)C2)C(C)(C)C)cc1 [Compound 21, (2S,4R)-4-hydroxy-1-((S)-2-(16-(3-(3-(2-hydroxyphenyl)-7H-pyrrolo[2,3-c]pyridazin-6-yl)azetidin-1-yl)-16-oxohexadecanamido)-3,3-dimethylbutanoyl)-N-(4-(4-methylthiazol-5-yl)benzyl)pyrrolidine-2-carboxamide]	C (“C” indicates maximum degradation < 50%)
< 50	Cc1ncsc1-c1ccc(CNC(=O)[C@@H]2C[C@@H](O)CN2C(=O)[C@@H](NC(=O)CCCCCCCCCCCCCCCC(=O)N2CC(c3cc4cc(-c5ccccc5O)nnc4[nH]3)C2)C(C)(C)C)cc1 [Compound 22, (2S,4R)-4-hydroxy-1-((S)-2-(17-(3-(3-(2-hydroxyphenyl)-7H-pyrrolo[2,3-c]pyridazin-6-yl)azetidin-1-yl)-17-oxoheptadecanamido)-3,3-dimethylbutanoyl)-N-(4-(4-methylthiazol-5-yl)benzyl)pyrrolidine-2-carboxamide]	C (“C” indicates maximum degradation < 50%)
< 50	O=C1CCC(N2C(=O)c3cccc(OCCOCCOCCC(=O)N4CC(c5cc6cc(-c7ccccc7O)nnc6[nH]5)C4)c3C2=O)C(=O)N1 (centres unmarked) [Compound 23, 2-(2,6-dioxopiperidin-3-yl)-4-(2-(2-(3-(3-(3-(2-hydroxyphenyl)-7H-pyrrolo[2,3-c]pyridazin-6-yl)azetidin-1-yl)-3-oxopropoxy)ethoxy)ethoxy)isoindoline-1,3-dione]	C (“C” indicates maximum degradation < 50%)
< 50	O=C1CCC(N2C(=O)c3ccc(OCCOCCOCCC(=O)N4CC(c5cc6cc(-c7ccccc7O)nnc6[nH]5)C4)cc3C2=O)C(=O)N1 (centres unmarked) [Compound 24, 2-(2,6-dioxopiperidin-3-yl)-5-(2-(2-(3-(3-(3-(2-hydroxyphenyl)-7H-pyrrolo[2,3-c]pyridazin-6-yl)azetidin-1-yl)-3-oxopropoxy)ethoxy)ethoxy)isoindoline-1,3-dione]	C (“C” indicates maximum degradation < 50%)
< 50	O=C1CCC(N2C(=O)c3ccc(OCCN4CCC(C(=O)N5CC(c6cc7cc(-c8ccccc8O)nnc7[nH]6)C5)CC4)cc3C2=O)C(=O)N1 (centres unmarked) [Compound 25, 2-(2,6-dioxopiperidin-3-yl)-5-(2-(4-(3-(3-(2-hydroxyphenyl)-7H-pyrrolo[2,3-c]pyridazin-6-yl)azetidine-1-carbonyl)piperidin-1-yl)ethoxy)isoindoline-1,3-dione]	C (“C” indicates maximum degradation < 50%)
< 50	O=C1CCC(N2C(=O)c3ccc(N4CCN(CCC(=O)N5CC(c6cc7cc(-c8ccccc8O)nnc7[nH]6)C5)CC4)cc3C2=O)C(=O)N1 (centres unmarked) [Compound 26, 2-(2,6-dioxopiperidin-3-yl)-5-(4-(3-(3-(3-(2-hydroxyphenyl)-7H-pyrrolo[2,3-c]pyridazin-6-yl)azetidin-1-yl)-3-oxopropyl)piperazin-1-yl)isoindoline-1,3-dione]	C (“C” indicates maximum degradation < 50%)
< 50	O=C1CCC(N2C(=O)c3cccc(NCCOCCOCCC(=O)N4CC(c5cc6cc(-c7ccccc7O)nnc6[nH]5)C4)c3C2=O)C(=O)N1 (centres unmarked) [Compound 27, 2-(2,6-dioxopiperidin-3-yl)-4-((2-(2-(3-(3-(3-(2-hydroxyphenyl)-7H-pyrrolo[2,3-c]pyridazin-6-yl)azetidin-1-yl)-3-oxopropoxy)ethoxy)ethyl)amino)isoindoline-1,3-dione]	C (“C” indicates maximum degradation < 50%)
< 50	O=C1CCC(N2C(=O)c3cccc(NCCCCCCCCCCC(=O)N4CC(c5cc6cc(-c7ccccc7O)nnc6[nH]5)C4)c3C2=O)C(=O)N1 (centres unmarked) [Compound 28, 2-(2,6-dioxopiperidin-3-yl)-4-((11-(3-(3-(2-hydroxyphenyl)-7H-pyrrolo[2,3-c]pyridazin-6-yl)azetidin-1-yl)-11-oxoundecyl)amino)isoindoline-1,3-dione]	C (“C” indicates maximum degradation < 50%)
< 50	O=C1CCC(N2C(=O)c3ccc(NCCOCCOCCC(=O)N4CC(c5cc6cc(-c7ccccc7O)nnc6[nH]5)C4)cc3C2=O)C(=O)N1 (centres unmarked) [Compound 29, 2-(2,6-dioxopiperidin-3-yl)-5-((2-(2-(3-(3-(3-(2-hydroxyphenyl)-7H-pyrrolo[2,3-c]pyridazin-6-yl)azetidin-1-yl)-3-oxopropoxy)ethoxy)ethyl)amino)isoindoline-1,3-dione]	C (“C” indicates maximum degradation < 50%)
< 50	O=C1CCC(N2C(=O)c3cccc(OCCCCCCCC(=O)N4CC(c5cc6cc(-c7ccccc7O)nnc6[nH]5)C4)c3C2=O)C(=O)N1 (centres unmarked) [Compound 30, 2-(2,6-dioxopiperidin-3-yl)-4-((8-(3-(3-(2-hydroxyphenyl)-7H-pyrrolo[2,3-c]pyridazin-6-yl)azetidin-1-yl)-8-oxooctyl)oxy)isoindoline-1,3-dione]	C (“C” indicates maximum degradation < 50%)
